Reference: patent publication US20140242673A1, “CHEMICALLY DEFINED CULTURE MEDIUM FOR FERMENTATION TO PRODUCE SUCCINIC ACID AND APPLICATION THEREOF” (NANJING UNIVERSITY OF TECHNOLOGY, priority 2011, published 2014)

Legend:
Assay type in all cases: cell-based
[1] = tested on: Actinobacillus succinogenes NJ113 (CGMCC 1716); test: Fermentation in defined medium with one growth factor missing (serum bottle, 30 h); conditions: for bacterial growth / glucose remaining / succinic acid production: culture medium lacks the named growth factor; for OD660 / Residual glucose / Succinic acid: medium lacking the named growth factor, 30 h, 37° C., 200 rpm
Excerpt: To investigate the effect of critical factors on succinic acid production described by this invention can use any microorganism germ seed used for production of succinic acid using anaerobic fermentation in existing technology. This preferred embodiment uses NJ113 (Actinobacillus succinogenes NJ113), which has been patented (authorized publication No.: CN100537744C).
First, significance and effect of various amino acids, vitamins, and metallic microelements on bacterial growth and metabolism has been investigated on defined medium. Particular operation and cultivation conditions are as follows:
(1) Preparation of amino acid mixed liquids: Remove each one type of amino acid from the 18 types of amino acid being tested, to prepare a mixed liquid of remaining 17 types of amino acid of suitable concentration (suitable concentration refers to the concentration at which the substance of lowest solubility is completely dissolved), as well as a mixed liquid containing all 18 types of amino acid. Quantity of each such liquid is 100 mL. After filtration sterilization by 0.22 μm sterile filtering head, keep these liquids for later use. Refer to Attached Table 1 for contents of various amino acids in the culture medium.
(2) Preparation of vitamin mixed liquids: Using the method in […], remove each one type of vitamin from the 10 types of vitamin being tested, to prepare a mixed liquid of remaining 9 types of vitamin of suitable concentration (suitable concentration refers to the concentration at which the substance of lowest solubility is completely dissolved), as well as a mixed liquid containing all 10 types of vitamin. Quantity of each such liquid is 100 mL. After filtration sterilization by 0.22 μm sterile filtering head, keep these liquids for later use. Refer to Attached Table 1 for contents of various vitamins in the culture medium.
(3) Preparation of metallic microelement mixed liquids: Using the method in step (1), remove each one type of metal salt from the 12 types of metal salt being tested, to prepare a mixed liquid of remaining 11 types of metal salt of suitable concentration (suitable concentration refers to the concentration at which the substance of lowest solubility is completely dissolved), as well as a mixed liquid containing all 12 types of metal salt. Quantity of each such liquid is 100 mL. After sterilization at 121° C. for 15 min, keep these liquids for later use. Refer to Attached Table 1 for contents of various metal salts in the culture medium.
Conventional compositions of fermentation culture medium (g/L): 90 of glucose (separately sterilized), 1 of disodium fumarate, 2 of KH2PO4, 0.2 of MgCl2.6H2O, 0.2 of CaCl2, and 1 of NaCl; sterilized at pH of 7.0 and 121° C. for 15 min; sodium carbonate adopted as neutralizing agent.
In a 100 mL serum bottle, add […] of fermentation culture medium and 1 mL of Actinobacillus succinogenes NJ113 (CGMCC 1716) seed liquid that has been washed by sterilized water; sterilize at 121° C. for 15 min; and then add 4 mL of reserved mixed liquid not containing a type of amino acid, 0.5 mL of reserved mixed liquid containing all vitamins being tested, 1 mL of reserved mixed liquid containing all types of metal salt being tested, and […] of sterilized 600 g/L glucose, so that after inoculation, the total volume reaches 20 mL and glucose concentration is 30 g/L.
Use the same method to prepare fermentation culture medium that lacks a certain type of vitamin or metal salt.
Carry out fermentation of above culture media under the following conditions:
At mechanical shaker speed of 200 rpm and 37° C., allow fermentation for 30 h and then detect content of succinic acid in the fermentation liquid.

Escherichia coli = test: Production of succinic acid by fermentation at different biotin concentrations
Protocol: This preferred embodiment reduces biotin consumption in the culture medium. Particular method of change of fermentation culture medium is described below.
Germ seed: Escherichia coli (strain from patent of publication No. CN102154339A)
Cultivation in fermenter: transfer activated seed liquid and sterilized glucose into fermenter; inoculum size shall be 5% (volume ratio); stirring speed shall be 200 rpm; allow fermentation at 37° C.; amount of CO2 connected shall be 0.25 vvm.
Conventional compositions of fermentation culture medium (g/L): 30 of glucose (separately sterilized), 2 of disodium fumarate, 3 of KH2PO4, 0.3 of MgCl2.6H2O, 0.23 of CaCl2, and 1 of NaCl; sterilized at pH of 7.0 and 121° C. for 15 min; sodium carbonate adopted as neutralizing agent.
In a 100 mL serum bottle, add 15 g/L of Na2HPO4, 4 g/L of KH2PO4, 13.1 mL of water, and 1 mL of Actinobacillus succinogenes NJ113 (CGMCC 1716) seed liquid after being washed by sterilized water; sterilize at 121° C. for 15 min, and then add 4 mL of reserved mixed liquid containing corresponding concentrations of amino acids, 0.5 mL of mixed liquid of vitamins including niacin and biotin so that […], 1 mL of reserved mixed liquid containing all metal salts being tested, and 0.4 mL of sterilized 500 g/L glucose solution, so that total volume after inoculation reaches 20 mL and glucose concentration is 10 g/L.
Fermentation experiment of above culture media containing different concentrations of biotin has been carried out under the same fermentation conditions as preferred embodiment 1:
According to identical germ seed, fermentation conditions, and experiment method of this preferred embodiment, biotin consumption in the culture medium is further lowered, to concentrations of 50 μg/L, 100 μg/L, 150 μg/L, 200 μg/L, and 300 μg/L respectively, for fermentation experiment: […]

[2] = tested on: Mannheimia succiniciproducens MBEL55E; test: Production of succinic acid by fermentation with biotin replaced by 5-ALA
Protocol: In this preferred embodiment, biotin (10˜20 mg/L) in culture medium is replaced by 0.1˜1 mg/L of 5-ALA, for fermentation experiment.
The microorganism adopts large Mannheimia succiniciproducens MBEL55E (strain from patents of publication No. EP2096177 and No. EP2199304).
Cultivation in fermenter: transfer activated seed liquid and sterilized glucose into fermenter; inoculum size shall be 7% (volume ratio); stirring speed shall be 200 rpm; allow fermentation at 37° C.; amount of CO2 connected shall be 0.25 vvm.
Conventional compositions of fermentation culture medium (g/L): 10 of mixed carbohydrate obtained from pre-treated stalk (measured total carbohydrate concentration), 3 of disodium fumarate, 4 of KH2PO4, 0.4 of MgCl2.6H2O, 0.4 of CaCl2, and 2 of NaCl; sterilize at pH value of 7.0 and 121° C. for 15 min; ammonia is adopted as neutralizing agent.

[3] = 5-ALA 0.1~1 mg/L replacing biotin

With `N[C@@H](CCC(=O)O)C(=O)O` [Glutamic acid] the bacterial growth [1] was “relatively poor”, the glucose remaining [1] was “large amount of glucose remains” and the succinic acid production [1] was “very low”. For the same compound, the OD660 [1] was 0.4, the Residual glucose [1] was 8.1 g/L and the Succinic acid [1] was 0.5 g/L.

For `CSCC[C@H](N)C(=O)O` [Methionine], the bacterial growth [1] was “relatively poor”, the glucose remaining [1] was “large amount of glucose remains” and the succinic acid production [1] was “very low”. It also gave an OD660 [1] of 0.6, a Residual glucose [1] of 4.3 g/L and a Succinic acid [1] of 1.3 g/L.

`O=C(O)c1cccnc1` [Niacin] was tested, and the bacterial growth [1] was “relatively poor”, the glucose remaining [1] was “large amount of glucose remains” and the succinic acid production [1] was “very low”. The OD660 [1] was 0.2, the Residual glucose [1] was 5.6 g/L and the Succinic acid [1] was 0.1 g/L.

`O=C(O)CCCC[C@@H]1SC[C@@H]2NC(=O)N[C@@H]21` [Biotin, biotin] was tested, and the Residual glucose (Escherichia coli; biotin 50 μg/L) was 23 g/L, the Succinic acid (Escherichia coli; biotin 50 μg/L) was 1.6 g/L and the Residual glucose (Escherichia coli; biotin 100 μg/L) was 2.2 g/L. For the same compound, the Succinic acid (Escherichia coli; biotin 100 μg/L) was 15.8 g/L, the Residual glucose (Escherichia coli; biotin 150 μg/L) was 2.6 g/L and the Succinic acid (Escherichia coli; biotin 150 μg/L) was 16.2 g/L. It also gave a Residual glucose (Escherichia coli; biotin 200 μg/L) of 2.5 g/L, a Succinic acid (Escherichia coli; biotin 200 μg/L) of 16.8 g/L and a Residual glucose (Escherichia coli; biotin 300 μg/L) of 2.8 g/L. It also gave a Succinic acid (Escherichia coli; biotin 300 μg/L) of 16.7 g/L, a Residual glucose (Escherichia coli; biotin 2 mg/L) of 0 g/L and a Succinic acid (Escherichia coli; biotin 2 mg/L) of 18.8 g/L. For the same compound, the Residual glucose (Escherichia coli; biotin 4 mg/L) was 0 g/L, the Succinic acid (Escherichia coli; biotin 4 mg/L) was 18.6 g/L and the Residual glucose (Escherichia coli; biotin 6 mg/L) was 0 g/L. The Succinic acid (Escherichia coli; biotin 6 mg/L) was 17.7 g/L, the Residual glucose (Escherichia coli; biotin 8 mg/L) was 0 g/L and the Succinic acid (Escherichia coli; biotin 8 mg/L) was 19.4 g/L. It also gave a Residual glucose (Escherichia coli; biotin 10 mg/L) of 0 g/L, a Succinic acid (Escherichia coli; biotin 10 mg/L) of 18.7 g/L and a Residual glucose (Escherichia coli; biotin 20 mg/L) of 0 g/L. The Succinic acid (Escherichia coli; biotin 20 mg/L) was 18.5 g/L, the bacterial growth [1] was “relatively poor” and the glucose remaining [1] was “large amount of glucose remains”. The succinic acid production [1] was “very low”, the OD660 [1] was 0.3 and the Residual glucose [1] was 6.9 g/L. The Succinic acid [1] was 0.7 g/L.

`NCC(=O)CCC(=O)O` [5-ALA, 5-aminolevulinate] was tested, and the Residual glucose [2, 3] was 3.4 g/L, the Succinic acid [2, 3] was 15.6 ± 0.2 g/L and the “output of succinic acid compared with biotin” value ([2]; biotin completely replaced by 5-ALA) was “can realize the highest output of succinic acid that can be obtained using biotin”.
